Assay results: ChEMBL document CHEMBL5291721, “A preclinical secondary pharmacology resource illuminates target-adverse drug reaction associations of marketed drugs” (Nat Commun, 2023)
Values belong to the molecule of their own block, whether it stands above or below them.

Tests used:
[1] = target: D(1A) dopamine receptor (Homo sapiens, UniProt P21728); assay type: functional, cell-based
[2] = target: T1, Muscarinic acetylcholine receptor M2 (Homo sapiens, UniProt P08172)
T1 sequence (P08172 whole entry): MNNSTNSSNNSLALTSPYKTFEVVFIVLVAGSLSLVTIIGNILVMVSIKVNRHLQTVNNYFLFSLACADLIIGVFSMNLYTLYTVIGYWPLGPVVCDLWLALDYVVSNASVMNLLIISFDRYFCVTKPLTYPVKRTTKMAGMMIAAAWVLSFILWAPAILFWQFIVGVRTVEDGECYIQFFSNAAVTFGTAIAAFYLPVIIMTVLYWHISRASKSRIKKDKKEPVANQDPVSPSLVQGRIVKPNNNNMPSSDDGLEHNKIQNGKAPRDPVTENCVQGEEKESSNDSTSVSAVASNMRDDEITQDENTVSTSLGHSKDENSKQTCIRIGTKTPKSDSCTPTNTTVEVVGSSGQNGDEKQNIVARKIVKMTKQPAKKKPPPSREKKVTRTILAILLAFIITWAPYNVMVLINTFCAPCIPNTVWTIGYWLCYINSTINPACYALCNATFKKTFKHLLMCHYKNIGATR

[3] = target: Synaptic vesicular amine transporter (Rattus norvegicus, UniProt Q01827); assay type: functional
Note: assay procedure not described here.

Synaptic vesicular amine transporter, sequence (Q01827 whole entry): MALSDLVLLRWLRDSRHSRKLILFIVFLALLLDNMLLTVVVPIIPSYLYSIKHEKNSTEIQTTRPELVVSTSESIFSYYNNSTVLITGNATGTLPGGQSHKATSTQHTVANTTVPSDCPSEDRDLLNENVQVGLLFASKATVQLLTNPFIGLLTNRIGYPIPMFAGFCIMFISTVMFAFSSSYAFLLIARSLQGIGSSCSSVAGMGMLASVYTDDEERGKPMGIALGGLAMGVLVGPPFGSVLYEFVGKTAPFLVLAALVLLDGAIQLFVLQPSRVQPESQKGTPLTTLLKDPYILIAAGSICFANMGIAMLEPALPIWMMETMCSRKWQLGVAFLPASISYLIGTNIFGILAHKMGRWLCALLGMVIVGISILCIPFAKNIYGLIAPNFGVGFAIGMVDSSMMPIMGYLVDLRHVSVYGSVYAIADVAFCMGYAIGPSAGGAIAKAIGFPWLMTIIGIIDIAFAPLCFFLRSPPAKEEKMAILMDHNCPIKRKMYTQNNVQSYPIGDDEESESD
D(1A) dopamine receptor, sequence (P21728 whole entry): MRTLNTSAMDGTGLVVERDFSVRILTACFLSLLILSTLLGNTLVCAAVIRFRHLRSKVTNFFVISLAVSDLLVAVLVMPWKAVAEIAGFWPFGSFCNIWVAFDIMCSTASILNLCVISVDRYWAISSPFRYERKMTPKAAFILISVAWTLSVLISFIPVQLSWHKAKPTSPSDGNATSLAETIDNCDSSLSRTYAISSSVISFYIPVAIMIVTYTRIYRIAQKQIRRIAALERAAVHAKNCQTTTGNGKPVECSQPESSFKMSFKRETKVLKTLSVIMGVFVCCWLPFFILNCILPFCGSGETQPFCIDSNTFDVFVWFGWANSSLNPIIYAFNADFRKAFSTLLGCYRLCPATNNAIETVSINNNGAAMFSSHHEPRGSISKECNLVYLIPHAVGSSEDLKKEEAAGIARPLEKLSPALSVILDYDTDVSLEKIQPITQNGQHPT

AC50 [1]: > 30 µM
Structure (SMILES): C[N+](C)(C)CCOC(N)=O [CARBAMOYLCHOLINE]

Structure (SMILES): CC(=O)OC(C)C[N+](C)(C)C (stereo not drawn) [METHACHOLINE]
AC50 [2]: 9.7 µM

Structure (SMILES): COc1cc2c(cc1OC)[C@H]1C[C@@H](OC(=O)[C@@H](N)C(C)C)[C@H](CC(C)C)CN1CC2 [VALBENAZINE]
AC50 [3]: 0.46 µM
